Patent publication US12480950B2, “AKT-specific capture agents, compositions, and methods of using and making” (California Institute of Technology, priority 2011, dated 2025)
Square brackets hold non-standard residues; d marks the D form. Ends that are not written are not given here. Pra = C#CC[C@H](N)C(=O)O; Az8 = not defined here

Assays:
Akt1 = assay: Specificity ELISA, immobilized ligand probed with His-tagged kinases; set-up: species or system H. sapiens; settings: A450 normalized to Akt1-S473E binding; kinase panel
Experimental: (§1) Biotinylated ligand was immobilized on Streptavidin plates and probed with 25 nM His-tagged kinase followed by anti-Histag antibody-HRP conjugate. Values represent the mean A450 obtained from three experiments after normalization to Akt1-S473E binding. The error bars show the standard error.
(§2) The specificity of the anchor ligand, biligand, and triligand developed in Example 1 was analyzed using a battery of protein kinases. […] Akt1-S473E was expressed and purified as described above.
(§3) The relative affinity of each kinase was determined by probing with an anti-His6 antibody and normalizing the response to Akt1-S473E. All proteins were diluted in Akt blocking buffer to a final concentration of 24 nM prior to use. Ligands were diluted in Akt blocking buffer to a final concentration of 2.5 μM prior to use. 100 μL of each ligand (250 pmol) was added to each well of a HBC streptavidin-coated 96-well plate. The ligands were bound at 4° C. for 1 hour followed by addition of D-biotin to a final concentration of 500 μM. After 10 minutes at 4° C., the wells were washed three times with Akt blocking buffer and blocked overnight in 5% non-fat milk.
(§4) The wells were washed three times in Akt blocking buffer and 50 μL of active protein was applied to each well. After binding for 120 minutes at 4° C., the wells were washed three times in Akt blocking buffer to remove unbound protein. 50 μL of horseradish peroxidase-conjugated Anti-His6 antibody was added at a dilution of 1:100 (His Probe (H-3) HRP conjugate, Santa Cruz Biotechnology). The antibody-HRP conjugate was incubated for 60 minutes and the wells were washed 3 times in TBST and once in TBS. 50 μL of peroxidase substrate (KPL) was added and the resulting color change was quenched with 50 μL 1 M H2SO4. The A450 measured on a 96-well plate reader. […] The mean value for the triplicates was calculated and plotted and the error bars were generated from the standard error of the mean (GraphPad Prism).

Akt = assay: Immunoprecipitation of Akt from OVCAR3 cell lysates with immobilized ligands; format: binding; settings: EGF and insulin induced or control, Western blot with pan-Akt antibody
Experimental: A representative 12% gel stained with Coomassie and imaged. Lane 1: Lysate, Lane 2: Anchor resin, Lane 3: Biligand resin, Lane 4: Triligand resin, Lane 5: 5G3 mAb resin.
After 18 hours at 4° C., resins were washed exhaustively, eluted with SDS-PAGE sample buffer, and analyzed by Western blotting. 1. Blank resin, 2. Anchor, 3. Biligand, 4. Triligand, 5. [5G3] mAb, L. lysate.
For the IP experiments, the anchor, biligand, and triligands were immobilized on streptavidin-agarose, and each resin was panned with OVCAR3 cell lysates obtained from untreated cells or cells stimulated with a combination of epidermal growth factor (EGF) and insulin.
OVCAR3 cells were grown in RPMI-1640 media containing 10% fetal bovine serum, penicillin, and streptomycin. Passage 4 cells were grown to ˜60% confluence and treated with insulin and EGF at final concentration of 10 μg/mL and 20 ng/mL respectively (induced) or mock treated (control). Cells were grown for an additional 24 hours and then lysed with lysis buffer (10 mM Tris-Cl (pH=7.5), 100 mM NaCl, 1% (v/v) Triton X-100, 0.1% SDS (w/v), 0.5% deoxycholate, 1 mM DTT, 1 mM EDTA, 1× PhosStop phosphatase inhibitors (Roche), 1× Complete protease inhibitors (Roche). Cell lysate protein concentrations were determined by Bradford assays. […]

GSK3β = target: T1, GSK3β (Homo sapiens, UniProt P49841); assay: Specificity ELISA, immobilized ligand probed with His-tagged kinases; settings: A450 normalized to Akt1-S473E binding
T1 construct: a set of His-tagged active protein kinase domains from the AGC family; purchased Invitrogen
Experimental: as §1, §2, §3, §4

[1] = target: T2, E17K mutant Akt1 PH Domain (Homo sapiens, UniProt P31749, E17K); assay: Streptavidin-agarose pulldown assay; format: binding; settings: Western blot, relative protein band sizes
T2 construct: The first 124 N-terminal amino acids from full length Akt1 were used as the PH Domain DNA; thrombin cleavage site (C); 6-His (C); made in house; host or cells: E. coli
Experimental: (§5) These resins were then incubated with either (a) WT or (b) E17K Mutant PHD to measure the amount of pulldown for each potential anchor ligand. Peptide eefef is SEQ ID NO:5. Peptide yleaf is SEQ ID NO:16.
(§6) Pulldown assays were done on Streptavidin Agarose resin from Novachem. The resin was incubated with N-terminally biotinylated anchor peptide candidates identified via the ClusterLigand sequence analysis. The anchor candidate coated beads were then incubated with both wildtype and mutant protein to compare the selectivity of the ligands, as well as the binding ability.
(§7) Assays were done with 50 uL of Streptavidin-Agarose slurry (25 uL resin) in Spin-X tubes. Resin was aliquotted into 14 tubes—six ligands plus a blank tested against two different proteins, then washed three times with 1×TBS with 0.25% IPEGAL detergent added. Each set of tubes was incubated with 170 nmol of the appropriate biotinylated ligand in 200 uL 1×HEPES (10 mM HEPES, 150 mM NaCl, 0.25% IPEGAL, 5 mM EDTA) or plain buffer for the blank. Ligand binding was done for one hour at room temperature, then resin was washed three times with 1×HEPES. Resin was blocked with 1×HEPES with 5% BSA for two hours. The anchor-coated resin was then incubated with either wildtype or mutant expressed PH domain protein overnight (˜16 hours) in cold room (4° C.). Protein was spun out of tubes, and the resin was washed three times with high salt TBS, then incubated for five minutes in the high salt buffer. The resin was then washed three times with the 1×TBS buffer, and spun out to dry completely. 50 uL of denaturing SDS gel loading buffer with 10% B-mercaptoethanol was added to the samples and they were incubated at 95° C. for ten minutes to denature. The gel loading buffer was spun out of the Spin-X tubes and the samples were run on an Any KD BioRad Premade Gel under denaturing conditions. Gel was transferred to nitrocellulose membrane and western blotted. Proteins were detected using rabbit polyclonal anti-Akt1 antibody (ab64148, Abcam) and an anti-rabbit HRP conjugated secondary anti-body then developed with West Pico Chemilluminescent substrate (Pierce).

wildtype Akt1 PH Domain = target: T3, wildtype Akt1 PH Domain (Homo sapiens, UniProt P31749); assay: Streptavidin-agarose pulldown assay; format: binding; settings: Western blot, relative protein band sizes
T3 construct: The first 124 N-terminal amino acids from full length Akt1 were used as the PH Domain DNA; thrombin cleavage site (C); 6-His (C); made in house; host or cells: E. coli
Experimental: as §5, §6, §7

Akt1-S473E-T308P [2] = assay: Phosphorylation of biotinylated anchor peptide in standard kinase reaction; format: biochemical, H. sapiens; settings: 30 min at room temperature, liquid scintillation counting
Experimental: Biotinylated peptides were incubated in a standard kinase reaction mixture for 30 min. at room temperature. A portion of the reaction was spotted onto a SAM2 Biotin Capture Membrane (Promega), washed, and analyzed by liquid scintillation counting. The total counts per minute (cpm) are shown for the anchor peptide (VFYRL-Bio(1) (SEQ ID NO:22) and VFYRL-Bio(2) (SEQ ID NO:22)) as well as the standard substrate peptide (Bio-Crosstide). The number in parentheses identifies the diastereomer based on retention time in RP-HPLC.
(§8) Candidate sequences were scaled up and tested for their ability to inhibit Akt1-S473E-T308P activity. […] This peptide was re-synthesized as a C-terminal biotinylated peptide and used as the anchor in the biligand screen.

Akt1-S473E-T308P [3] = assay: [γ-32P]-ATP kinase activity assay, inhibition of Akt1-S473E-T308P; format: biochemical, H. sapiens; settings: 120 μM compound, 30 minutes at room temperature, in the absence and presence of the conjugated small molecule inhibitor
Experimental: Peptide is SEQ ID NO:22. Kinase reactions were carried out with 120 μM of each compound for 30 minutes at room temperature. The amount of phosphorylated substrate was quantitated by liquid scintillation counting and the % Akt1-S473E-T308P activity determined based on the amount of product formed in the control kinase reaction. The values shown are the mean value of three experiments and the error bars are the standard deviation.
The activity of Akt-S473E-T308P was characterized by a [γ-^32P]-ATP kinase activity assay measuring the incorporation of ^32P into biotinylated crosstide peptide (Anaspec). Briefly, reactions containing 80 ng of Akt-S473E-T308P, 50 μM Bio-crosstide, and varying concentrations of ATP/[γ-^32P]-ATP (specific activity=1.5 mCi/mL).
as §8

Akt-S473E = assay: ELISA with immobilized Akt-S473E, relative affinity of biotinylated ligands; format: binding, H. sapiens; settings: read-out: binding affinity for Akt
Chain of Akt-S473E (P31749 144-449 limits assumed, stated change not applied): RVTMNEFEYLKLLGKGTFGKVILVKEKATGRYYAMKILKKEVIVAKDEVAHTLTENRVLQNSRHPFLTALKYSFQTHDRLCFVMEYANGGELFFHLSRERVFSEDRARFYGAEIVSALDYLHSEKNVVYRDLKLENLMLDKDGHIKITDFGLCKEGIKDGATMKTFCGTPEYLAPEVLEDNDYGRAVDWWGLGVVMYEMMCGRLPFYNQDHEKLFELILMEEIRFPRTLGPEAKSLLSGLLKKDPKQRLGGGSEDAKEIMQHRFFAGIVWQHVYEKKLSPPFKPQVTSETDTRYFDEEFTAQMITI
Experimental: Akt-S473E was immobilized on Ni-NTA plates and incubated with varying concentrations of biotinylated peptide. All values were normalized to the binding observed at saturation.
The affinity of the anchor ligand, biligand, and triligand developed in Example 1 was determined by ELISA with immobilized Akt-S473E.
3 μg of Akt-S473E was added to each well in a HisSorb Ni-NTA plate (Qiagen) in 50 μL of ELISA blocking buffer (25 mM Tris-Cl (pH=7.5), 150 mM NaCl, 10 mM MgCl2, 0.1% (v/v) Tween-20, and 4 mg/mL BSA). 50 μL of imidazole blocking buffer (25 mM Tris-Cl (pH=7.5), 150 mM NaCl, 10 mM MgCl2, 0.1% (v/v) Tween-20, 100 mM imidazole, and 4 mg/mL BSA) was added to the control wells. After 18 hours at 4° C., the wells were washed with ELISA blocking buffer and 50 μL of each ligand dilution was added in ELISA blocking buffer. The ligands were bound at 4° C. for 120 minutes followed by three washed in ELISA blocking buffer. 50 μL of horseradish peroxidase-conjugated streptavidin (SA-HRP, Thermo) was added (1:5000 dilution in ELISA blocking buffer) and incubated for 70 minutes at 4° C. […] 50 μL of peroxidase substrate (KPL) was added to generate the final signal which was quenched in 1 M H2SO4 and quantitated on a 96-well plate reader at X=450 nm. The Net A450 was calculated by subtracting the A450 of each blank well (No Akt-S473E) from the experimental well. […]

Chain of Akt1 (P31749 150-408 limits assumed): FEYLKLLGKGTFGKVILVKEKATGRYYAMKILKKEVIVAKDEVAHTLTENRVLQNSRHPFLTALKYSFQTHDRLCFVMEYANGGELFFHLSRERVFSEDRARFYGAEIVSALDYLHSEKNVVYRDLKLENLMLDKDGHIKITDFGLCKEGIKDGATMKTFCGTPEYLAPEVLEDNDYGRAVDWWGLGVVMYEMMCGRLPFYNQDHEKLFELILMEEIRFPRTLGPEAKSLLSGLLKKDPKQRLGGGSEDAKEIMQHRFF
T1 sequence (P49841 56-340 limits assumed, species assumed): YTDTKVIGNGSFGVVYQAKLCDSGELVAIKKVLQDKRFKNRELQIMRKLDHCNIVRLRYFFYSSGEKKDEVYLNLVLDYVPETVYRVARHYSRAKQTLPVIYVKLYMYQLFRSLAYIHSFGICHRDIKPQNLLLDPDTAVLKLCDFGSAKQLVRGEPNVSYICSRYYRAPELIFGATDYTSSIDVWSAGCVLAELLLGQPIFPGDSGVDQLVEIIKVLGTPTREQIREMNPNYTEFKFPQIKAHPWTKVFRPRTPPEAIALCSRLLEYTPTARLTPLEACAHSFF
T3 sequence (P31749 1-124): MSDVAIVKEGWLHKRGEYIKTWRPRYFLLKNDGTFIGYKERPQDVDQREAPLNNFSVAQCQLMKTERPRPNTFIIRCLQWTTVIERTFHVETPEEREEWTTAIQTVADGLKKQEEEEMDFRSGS
Chain of Akt1-S473E-T308P (P31749 150-449 limits assumed, stated change not applied): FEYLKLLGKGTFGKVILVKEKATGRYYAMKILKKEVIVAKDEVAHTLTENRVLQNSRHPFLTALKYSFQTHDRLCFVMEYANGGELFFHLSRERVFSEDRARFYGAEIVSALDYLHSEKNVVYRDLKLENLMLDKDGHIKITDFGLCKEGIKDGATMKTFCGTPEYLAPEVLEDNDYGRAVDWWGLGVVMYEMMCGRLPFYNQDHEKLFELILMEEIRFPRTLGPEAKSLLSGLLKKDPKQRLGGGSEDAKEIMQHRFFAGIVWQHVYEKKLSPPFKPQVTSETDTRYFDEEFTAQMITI
T2 sequence (P31749 1-124 E17K): as the sequence (P31749 1-124) above, with E17K counted along it

| binding to GSK3β (GSK3β) | phosphorylation by Akt in vitro (Akt1-S473E-T308P [2]) | inhibition of Akt1 (Akt1-S473E-T308P [3]) [%] | Kd (Akt-S473E) [µM] | Substance | specificity / selectivity for Akt1 (Akt1) | immunoprecipitation of Akt (Akt) | pulldown of E17K mutant PH Domain [1] | pulldown of wildtype PH Domain (wildtype Akt1 PH Domain) |
| --- | --- | --- | --- | --- | --- | --- | --- | --- |
| significant cross-reactivity | – | – | – | biligand: anchor ligand Az8-VFYRLGY linked by 1,4-triazole to secondary ligand Pra-FWFLRG-CONH2; biotinylated for assays (peptide 2 [Pra]FWFLRG-NH2; not fully specified (N-terminus, C-terminus, bridges); reading uncertain; also: biotinylated for assays, triazole at chain B 1 to a chain's N-terminus) | reduced selectivity | increased affinity | – | – |
| – | – | – | – | eefef ([dE][dE][dF][dE][dF]; not fully specified (N-terminus); printed as eefef; also: biotinylated, position not confirmed) | – | – | the least pulldown for the mutant protein | the only pulldown of the wildtype protein |
| only modest binding | not phosphorylated | ~95 | > 25 | Az8-VFYRLGY-CONH2 [anchor ligand] | very specific for the Akt1 protein | – | – | – |
| – | – | – | – | yleaf ([dY][dL][dE][dA][dF]; not fully specified (N-terminus); printed as yleaf; also: biotinylated, position not confirmed) | – | – | the greatest binding to the mutant | the least binding to the wildtype |
